According to patent US20060166870A1, “Treatment of glioblastoma with thymosin-alpha 1” (Rhode Island Hospital, priority 2001, published 2006):
“And” between values parts separate entries of the source, which are not always exact repeats. Equal values may be shown once. “Also recorded” adds a separate entry of the source. No end group written: not given here.

How the values were obtained:
9 L glioblastoma = settings: for lympho-mononuclear inflammatory cell infiltrates in brain: histopathology, day 20
Method: Rat 9 L glioblastoma cells were obtained from the American Type Culture Collection (Washington, D.C.) and certified as pathogen-free. The cells were maintained in Dulbecco's Modified Eagle's Medium (DMEM) supplemented with 5% fetal calf serum (FCS) and 2 mM glutamine. Antibiotics were not added to the medium. Prior to injection, the cells were rinsed with phosphate-buffered saline (PBS), detached from the culture surfaces and dissociated into single cell suspensions with 0.25% trypsin/0.05% EDTA. The dissociated cells were washed 3 times in serum-free DMEM and finally suspended in serum-free DMEM at a density of 5×10^6 viable cells/ml. Viable cell density was determined using Trypan blue exclusion and a hemocytometer chamber.
An in vivo model of glioblastoma was generated in adult (250-300 grams) Long Evans rats. Rats were anesthetized with a single intraperitoneal injection of a cocktail containing 100 mg/kg ketamine and […] in 50% ethanol. After anesthetization, the head was shaved and prepped with povidone iodine, and the rat was placed in a stereotactic headframe. A midline incision was made and a 3 mm burr hole was drilled over the frontal lobe, and 2 μl of 9 L glioma cell suspension (10,000 cells total) was injected directly into the brain using a Hamilton syringe with attached 26-gauge needle placed at a depth of 3.5 mm. After removal of the needle, the wound was washed with sterile saline, the animal was removed from the frame and the skin was closed with resorbable sutures. The rats were returned to their cages and observed for any signs of deterioration including weight loss, reduced food and water intake, hemiparesis, seizures, or inactivity. If any degree of suffering was observed, the animals were euthanized with 120 mg/kg sodium pentobarbital. Animals were observed daily and weighed weekly.
The tumor was allowed to develop for 5 days, followed by anti-neoplastic treatment. Rats were divided into 6 treatment groups: vehicle control; low (45 μg/kg) thymalfasin; high (200 μg/kg) thymalfasin; low thymalfasin+BCNU; high thymalfasin+BCNC; and BCNU (9.4 mg/kg) only. BCNU was administered as a single intraperitoneal (I.P.) injection on day 6 after the intracerebral tumor inoculation. Rats treated with thymalfasin were given single I.P. injections of thymalfasin for 3 consecutive days, beginning on day 6 after tumor cell inoculation. Rats were sacrificed on day 20 post tumor inoculation. The rats were killed by I.P. injection of 120 mg/kg sodium pentobarbital. The brains were harvested, sectioned, immersion fixed in Histochoice (Amresco Co., Solon, Ohio), and processed for paraffin embedding. Tumor burden was assessed from the gross tissue blocks and the histological sections stained with hematoxylin and eosin. Histological sections were also used in immunohistochemical staining studies to detect inflammatory cell infiltrates.
A semiquantitative histological grading scale was used to assess tumor burden for inter-group comparisons: 0—cure, no residual tumor; 1—microscopic tumor (<1 mm) confined to the superficial cortex; 2—tumor mass occupying less than 25% of the hemisphere cross section (1-2 mm); 3—tumor mass occupying up to 50% of the hemisphere cross section (2-3 mm) and extending into deep structures; 4—massive tumor burden with involvement of 50-90% of the hemisphere cross section, with herniation. The sections were coded and graded simultaneously by two separate individuals without knowledge of treatment group. […]

[1] = tested on: Rat 9 L glioblastoma cells; assay: MTT assay of mitochondrial function in thymalfasin-treated 9 L cells; assay type: cell-based; settings: 24 hours, various concentrations of thymalfasin, vs vehicle
Method: (§1) All cell lines were kept at 37° C. in a humidified atmosphere containing 5% CO2. The cell lines were obtained from the American Type Culture Collection and were certified as free of pathogens.
(§2) Thymosin alpha 1 treatment: For acute thymalfasin treatment, cells seeded in 96-well plates at a cell density of 20,000 cells/well were treated with 10^−5 M thymalfasin for 24 hours. Cells treated chronically with thymalfasin were grown in flasks and treated every 24 hours with 10^−5 M thymalfasin (added to fresh medium) for the duration of the treatment (3 days). In addition, for the determination of a dose-response curve to thymalfasin for 9 L cells, cells were treated with serially diluted amounts of thymalfasin, yielding thymalfasin concentrations ranging from 50 µM to […].
(§3) MTT assays were conducted on 9 L and 293 cell lines to determine the effects of thymalfasin treatment and/or H2O2-induced oxidative stress on the mitochondrial function of the cells. After treatment, 10 μl of MTT solution were added to each well containing 100 μl of medium. The plates were incubated with the MTT dye in the 37° C. incubator for 15 min-1 hour, depending on the cell type. The medium was then removed, and 200 μl of acidic Isopropanol was added to each well. The plates were shaken at room temperature until cell lysis occurred, and then read in a Packard SpectraCount™ machine at 540 nm.

[2] = tested on: Rat 9 L glioblastoma cells; assay: Crystal violet (CV) cell viability assay in thymalfasin-treated 9 L cells; assay type: cell-based; settings: thymalfasin vs vehicle-treated control
Method: as §1, §2
Crystal Violet (CV) was also used to stain cells in 96-well plates. After discarding the medium, 20 μl of crystal violet was added to each well and shaken at room temperature for 10 minutes. The plates were then washed several times with warm water and dried. 100-200 μl (depending on cell density) of PBS w/1% SDS was added to each well. The plates were incubated at room temperature on a shaker until the cells were sufficiently lysed. The plates were read at 540 nm to detect differences in cell viability between the various groups tested.

9 L glioblastoma cells [3] = assay: Microtiter immunocytochemical ELISA (MICE) assay of pro-apoptosis/survival gene products, 9 L cells; assay type: cell-based, rat
Method: (§4) Microtiter Immunocytochemical ELISA (MICE) Assays (de la Monte, 1999) were done on 9 L and 293 cells. Cells were seeded in 96-well plates, treated with 10^−5M thymalfasin for 24 hours, and histofixed overnight prior to analysis using MICE assay. the fixed cells were permeabilized with 0.05% saponin in Tris-buffered saline (50 mM Tris, pH 7.5, 0.9% NaCl; TBS), blocked with Superblock-TBS (Pierce, Rockford, Ill.), and then incubated overnight at 4° C. with primary antibodies to proliferating cell nuclear antigen (PCNA), bcl-2, p21/Wwaf-1, p53, FasL, FasR, TNF-R1, or GAPDH, each diluted to 0.5-1 μg/ml in TBS containing 0.05% Tween-20 and 0.5% bovine serum albumin (TBST-BSA). Immunoreactivity was detected using horseradish peroxidase conjugated secondary antibody (Pierce, Rockford, Ill.) and the TMB soluble substrate (Pierce, Rockford, Ill.). Reactions were stopped by the addition of 1 M H2SO4 and absorbances were measured at 450 nm in a Spectracount microplate reader (Packard Instrument Co., Meriden, Conn.). Subsequently, cell density was measured by staining the adherent cells with Coomassie blue dye and measuring the absorbance of the eluted dye (de la Monte, 1999). The MICE index was the calculated ratio of TMB and Coomassie blue absorbance measured in the same culture well. Mean±S.D. of results obtained from 16 replicate culture wells were used for inter-group statistical comparisons.
(§5) In this regard, the expression of gene products that promote either apoptosis or cell survival were examined, using housekeeping gene expression as control. The studies were performed in 96-well plates using the microtiter immunocytochemical ELISA […] assay to generate data from multiple replicate cultures. […] Thus, the results of the MICE assays indicate that for the two cell lines, thymalfasin works via different pathways to increase the susceptibility of the cells to cell death by apoptosis.

293 human kidney cells = assay: Microtiter immunocytochemical ELISA (MICE) assay of pro-apoptosis/survival gene products, 293 cells; assay type: cell-based
Method: as §4, §5

9 L glioblastoma cells [4] = assay: H2O2-induced oxidative stress sensitivity of thymalfasin-treated 9 L cells (MTT); assay type: cell-based, rat
Method: H2O2 was used with cells to induce oxidative stress. […] In the experiments in which serially diluted amounts of thymalfasin were administered to the cells, a constant amount of the […] H2O2 was used to treat the cells. For 9 L cells, an H2O2 curve was developed in order to determine the correct H2O2 concentration with which to treat the cells.
as §3
Validation of the ability of thymalfasin to increase the susceptibility of 9 L and 293 cells to apoptosis was sought testing H2O2-induced oxidative stress. As determined through MTT assays, 9 L cells treated with thymalfasin for 24 hours and subsequently H2O2 for 24 hours did indeed show significant loss in viability in comparison to 9 L cells treated only with H2O2 for 24 hours (FIG. 3).

9 L glioblastoma cells [5] = assay: BCNU-mediated killing of thymalfasin-treated 9 L cells; assay type: cell-based, rat; settings: 24 or 72 hours thymalfasin treatment
9 L glioblastoma cells [6] = assay: Streptolysin O + recombinant Granzyme B killing assay (ATPlite viability); assay type: cell-based, rat; settings: thymalfasin 24 h (acute) or 72 h (chronic), then SLO+Granzyme B 1 or 3 hours, p<0.001
Method: In order to determine the differential susceptibility of 9 L glioblastoma cells treated (or not) with thymalfasin to cytotoxic T-lymphocyte (CTL) induced apoptosis, experimental assays were conducted in which 9 L cells were treated both acutely for 24 hours and chronically for 72 hours with thymalfasin, after which they were harvested, re-seeded into 96-well black plates (7.5×10^5 cells/75 μl/well), and exposed to 20,000 units/ml Streptolysin O (SLO) plus 100 ng recombinant Granzyme B (reaction volume 100 μl) for 1 or 3 hours at 37° C. The SLO was used in place of perforin to permeabilize the cells, and recombinant Granzyme B was used to standardize the assay. Control studies included parallel reactions in which SLO, Granzyme B, or both were omitted. Viable cell density was measured using the ATPlite assay (Packard Instrument Company, Meriden, Conn.) which has a broad linear dynamic range correlating relative light units with cell densities between 10^3 to 10^6 cells per culture well.
In vivo, malignant neoplastic cells are killed by cytotoxic T cells and macrophages that are recruited by pro-inflammatory cytokines such as IL-2 and IL-12. […] Viability was measured using the ATP luminescence assay and within group comparisons were made to determine the relative killing associated with SLO+Granzyme B treatment. […]

[7] = tested on: Primary neuronal cortical cells; assay: Cell viability of primary cortical neuron cultures (CV and MTT); assay type: cell-based
Excerpt: Primary cortical neuron cultures were studied to enable selection of thymalfasin doses that would not be toxic to non-neoplastic brain cells.
However, this dose is higher than established experimental and clinical dosages.

[8] = cited from earlier work
[9] = 10^-5 M thymalfasin, 24 hours, P<0.01

## O=NN(CCCl)C(=O)NCCCl [BCNU, bischloroethyl nitrosurea]
9 L glioblastoma; BCNU 9.4 mg/kg I.P. single dose, nearly half the group showed no response
  reduction of tumor burden in responding animals: up to 50%
9 L glioblastoma
  lympho-mononuclear inflammatory cell infiltrates in brain: scant

## Thymosin α-1 (SDAAVDTSSEITTKDLKEKKEVVEEAEN; ends and bridges not checked; UniProt P06454 2-29, looked up) [thymalfasin, 28-amino acid peptide, a synthetic form of a naturally occurring compound that is found in circulation]
[1]
  cell mitochondrial functioning (MTT): minimal effect; also recorded: insignificant decrease; also recorded: no direct effect
[2]
  cell viability / direct cytotoxic effect: minimal effect; also recorded: no significant direct cytotoxic effects; also recorded: no direct effect
9 L glioblastoma cells [3]; [9]
  increase in FasL level relative to vehicle-treated controls: 65.89%
  increase in FasR level relative to vehicle-treated controls: 44.08%
  increase in TNF-R1 level relative to vehicle-treated controls: 22.18%
9 L glioblastoma cells [3]; thymalfasin 24 hours
  GAPDH expression level: not significantly affected
  bcl-2 expression level: not significantly affected
293 human kidney cells; data not shown
  change in FasL expression: no significant changes
  change in FasR expression: no significant changes
  change in TNF-R1 expression: no significant changes
293 human kidney cells; thymalfasin, P<0.01, data not shown
  reduction in bcl-2: 36.67%
9 L glioblastoma cells [4]; 9 L cells, thymalfasin 24 hours then 270 μM H2O2 24 hours
  decrease in mitochondrial functioning (MTT) vs cells treated only with H2O2: 26.6%
9 L glioblastoma cells [4]; 24 or 72 hours thymalfasin treatment
  9 L cells killed by ordinarily non-lethal (sub-lethal) H2O2 after thymalfasin treatment: 25% and 30-50%
9 L glioblastoma cells [5]
  9 L cells killed by sub-lethal concentrations of BCNU after thymalfasin treatment: 40%
9 L glioblastoma cells [6]
  cell viability after SLO+Granzyme B relative to SLO, Granzyme B or vehicle alone: significant reductions in cell viability
[7]; highest concentration of thymalfasin used (3.3×10^−7M as printed)
  decrease in viability (MTT) of primary neuronal cortical cells: 30%
[7]; serial dilutions, 3.3×10^−5 M to 1×10^−9 M, experimental doses
  cell viability of primary neuronal cortical cells: no decrease in cell viability
9 L glioblastoma; Long Evans rats, 10,000 9 L cells intracerebral, I.P. treatment from day 6, sacrifice day 20, BCNU 9.4 mg/kg, thymalfasin 45 or 200 μg/kg
  tumor burden / tumor growth: the same as control or worse
9 L glioblastoma
  lympho-mononuclear inflammatory cell infiltrates in brain: conspicuous
9 L glioblastoma; rat, in vivo
  intracerebral swelling and herniation: extreme intracerebral swelling
[8]
  dose found to be safe for humans: ≤ 16 mg/kg body weight/day
